The test system of one data set is EMT-6 cells. Description: Murine breast cancer efficacy model, EMT-6 allograft. The class given is in vivo, Balb/C female mice. The method, then:
PAD4 is highly expressed in malignant tumours of various cell types, Here, the mouse mammary carcinoma of 4T1 and EMT6 cells were used as an experimental model. Mouse 4T1, and EMT-6, a breast cancer cell line was sourced from American Type Culture Collection (ATCC), USA. Cells were grown according to the product information. To establish allografts, the cells were harvested by trypsinization when they reached around 70 to 80% confluence. After harvesting, Balb/C female mice (7-8 weeks) were implanted with 4T1 (1 million cells/site) and EMT-6 (0.5 million cells/site) subcutaneously in the dorsal right flank of mice using a 1 mL BD syringe attached to a 24-gauge needle. When the tumors became palpable tumor measurement was initiated and at an approximate tumor volume of ˜110 and 93 mm3, respectively. Animals were randomized into different treatment groups keeping tumor volume and the number of animals/group similar across the groups and compound 143 treatment was initiated. […]
Tumor dimensions (length and breadth) were measured on days 1 (animal randomization based on tumor volume) and thrice weekly thereafter until study termination.
Tumor volumes were calculated using the formula (b2*1)*0.52 where l=length, b=breadth (Dusan Djokovic et al., BMC Cancer, 2010, 10:641). […]

The test system of data set [1] is Histone H3 Citrullination in Neutrophils. Description: Citrullination ELISA (Citrullinated Histone H3) in calcium ionophore stimulated neutrophils. Conditions: Neutrophil; human neutrophils, 25 μM calcium ionophore, CitH3 ELISA. The class given is cell-based. In a few lines: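 Freshly isolated human donor neutrophils in RPMI with 2% BSA and 1 mM CaCl2 were pre-incubated 30 min with compound (10, 1, 0.1 μM), then stimulated 30 min with 25 μM calcium ionophore. After S7 nuclease digestion, lysates were assayed by citrullinated histone H3 ELISA (450 nm); IC50 from sigmoidal fits.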

In the case of `N[C@@H]1CCCN(C(=O)c2cc3c4c(c2)nc(-c2cc5cccc(Cl)c5n2CC2CC2)n4CCO3)C1` [Compound 143, (R)-(3-aminopiperidin-1-yl)(2-(7-chloro-1-(cyclopropylmethyl)-1H-indol-2-yl)-3,4-dihydro-5-oxa-1,2a-diazaacenaphthylen-7-yl)methanone], the “TGI (percent tumor growth inhibition)” value in the data set with EMT-6 cells (50 mg/kg, BID, PO, day 13, EMT-6) worked out at 42.6%. The Body weight changes result with EMT-6 cells (EMT-6 bearing mice, BID PO for 13 days) was “no significant body weight changes”. In addition, the IC50 in data set [1] is 100 to 1000 nM.

The record behind these values is patent US20220047569A1, “METHOD AND COMPOUND FOR USE, IN TREATING AND/OR PREVENTING NETOSIS” (Jubilant EpiPad LLC, priority 2020, published 2022).
